Converted amounts (≈) assume the structure as drawn. One block for each compound: values may come before it.
How the values were obtained:
Bacillus subtilis = test: Zone of Bacillus subtilis inhibition at 30 ug; type: functional
P388 = test: Antiproliferative activity against murine P388D1 cell line; type: functional, cell-based; conditions: Mus musculus
Escherichia coli = test: Zone of Escherichia coli inhibition at 30 ug; type: functional

IC50 (P388): 0.062 µg/mL (≈ 0.134 µM)
Structure (SMILES): O=C1C(Br)=CC2(C=C1Br)CCNC1=C2C2=NCCc3c[nH]c(c32)C1=O [DISCORHABDIN C]
inhibition zone (IZ) (Bacillus subtilis): 8 mm
inhibition zone (IZ) (Escherichia coli): 1 mm

Structure (SMILES): CSC1=CC(=O)C(Br)=C[C@]12C=CNC1=C2C2=NCCc3c[nH]c(c32)C1=O
inhibition zone (IZ) (Bacillus subtilis): 3 mm
IC50 (P388): 0.081 µg/mL (≈ 0.189 µM)
inhibition zone (IZ) (Escherichia coli): 0 mm

Structure (SMILES): CSC1=CC(=O)C(Br)=C[C@]12C=CNC1=C2C2=NCCc3cn(C)c(c32)C1=O [DISCORHABDIN U]
inhibition zone (IZ) (Bacillus subtilis): 3 mm
IC50 (P388): 0.089 µg/mL (≈ 0.201 µM)
inhibition zone (IZ) (Escherichia coli): 0 mm

IC50 (P388): 0.918 µg/mL (≈ 1.47 µM)
Structure (SMILES): O=C1C=C(SC(=O)c2ccccc2)[C@@]2(C=CNC3=C2C2=NCCc4cn(C(=O)c5ccccc5)c(c42)C3=O)C=C1Br
inhibition zone (IZ) (Bacillus subtilis): 0 mm
inhibition zone (IZ) (Escherichia coli): 0 mm

Structure (SMILES): Cn1cc2c3c1C(=O)C1=C(C3=NCC2)C2(C=C(Br)C(=O)C(Br)=C2)CCN1 [DISCORHABDIN]
inhibition zone (IZ) (Bacillus subtilis): 8 mm
IC50 (P388): 0.182 µg/mL (≈ 0.381 µM)
inhibition zone (IZ) (Escherichia coli): 0 mm

Structure (SMILES): O=C1C=C2S[C@H]3C[C@]2(C=C1Br)C1=C(N3)C(=O)c2[nH]cc3c2C1=NCC3 [(+)-DISCORHABDIN B]
inhibition zone (IZ) (Bacillus subtilis): 6 mm
IC50 (P388): 0.044 µg/mL (≈ 0.106 µM)
inhibition zone (IZ) (Escherichia coli): 1 mm

Source: ChEMBL document CHEMBL1146927, “Semi-synthetic preparation of the rare, cytotoxic, deep-sea sourced sponge metabolites discorhabdins P and U” (Bioorg Med Chem Lett, 2006)
